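Results reflect a 48-hour exposure of cells in 96-well plates to compound at five concentrations. GI50 is the concentration that inhibits growth by half. TGI is the concentration that stops growth completely.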
Legend:
Test in all cases: NCI-60 cell line screen, 48 h
A498 renal = system: A498 renal
A549 NSCLC = system: A549 NSCLC
ACHN renal = system: ACHN renal
BT-549 breast = system: BT-549 breast
CAKI-1 renal = system: CAKI-1 renal
CCRF-CEM leukemia = system: CCRF-CEM leukemia
COLO 205 colon = system: COLO 205 colon
HCT-15 colon = system: HCT-15 colon
HOP-62 NSCLC = system: HOP-62 NSCLC
HOP-92 NSCLC = system: HOP-92 NSCLC
IGROV1 ovarian = system: IGROV1 ovarian
K-562 leukemia = system: K-562 leukemia
KM12 colon = system: KM12 colon
LOX IMVI melanoma = system: LOX IMVI melanoma
M14 melanoma = system: M14 melanoma
MALME-3M melanoma = system: MALME-3M melanoma
MCF7 breast = system: MCF7 breast
NCI-H226 lung = system: NCI-H226 lung
NCI-H23 lung = system: NCI-H23 lung
RPMI-8226 leukemia = system: RPMI-8226 leukemia
RXF 393 renal = system: RXF 393 renal
SF-268 CNS = system: SF-268 CNS
SF-295 CNS = system: SF-295 CNS
SF-539 CNS = system: SF-539 CNS
SK-MEL-5 melanoma = system: SK-MEL-5 melanoma
SK-OV-3 ovarian = system: SK-OV-3 ovarian
SN12C renal = system: SN12C renal
SR leukemia = system: SR leukemia
SW-620 colon = system: SW-620 colon
TK-10 renal = system: TK-10 renal
U251 CNS = system: U251 CNS
UACC-257 melanoma = system: UACC-257 melanoma
UACC-62 melanoma = system: UACC-62 melanoma
UO-31 renal = system: UO-31 renal
786-0 renal = system: 786-0 renal
DU-145 prostate = system: DU-145 prostate
EKVX NSCLC = system: EKVX NSCLC
HL-60(TB) leukemia = system: HL-60(TB) leukemia
MDA-MB-435 = system: MDA-MB-435
MOLT-4 leukemia = system: MOLT-4 leukemia
OVCAR-3 ovarian = system: OVCAR-3 ovarian
OVCAR-4 ovarian = system: OVCAR-4 ovarian
OVCAR-5 ovarian = system: OVCAR-5 ovarian
SK-MEL-28 melanoma = system: SK-MEL-28 melanoma
SNB-19 CNS = system: SNB-19 CNS
HCC-2998 colon = system: HCC-2998 colon
HCT-116 colon = system: HCT-116 colon
HS 578T breast = system: HS 578T breast
HT29 colon = system: HT29 colon
MDA-MB-231 breast = system: MDA-MB-231 breast
NCI-H460 lung = system: NCI-H460 lung
NCI/ADR-RES ovarian = system: NCI/ADR-RES ovarian
OVCAR-8 ovarian = system: OVCAR-8 ovarian
SNB-75 CNS = system: SNB-75 CNS
T-47D breast = system: T-47D breast
NCI-H522 lung = system: NCI-H522 lung
PC-3 prostate = system: PC-3 prostate
SK-MEL-2 melanoma = system: SK-MEL-2 melanoma

`COc1cc([C@@H]2c3cc4c(cc3C[C@@H]3COC(=O)C32)OCO4)cc(OC)c1O` (some centres not stated) showed a TGI (A498 renal) greater than 100 µM, a TGI (A549 NSCLC) greater than 93.4 µM and a TGI (ACHN renal) of 23.5 µM. It also gave a TGI (BT-549 breast) greater than 100 µM, a TGI (CAKI-1 renal) of 0.823 µM and a TGI (CCRF-CEM leukemia) of 0.0526 µM. For the same molecule, the TGI (COLO 205 colon) was 0.0933 µM, the TGI (HCT-15 colon) was greater than 100 µM and the TGI (HOP-62 NSCLC) was 24.3 µM. It also gave a TGI (HOP-92 NSCLC) of 34.9 µM, a TGI (IGROV1 ovarian) of 0.0791 µM and a TGI (K-562 leukemia) greater than 100 µM. It also gave a TGI (KM12 colon) greater than 100 µM, a TGI (LOX IMVI melanoma) of 15.7 µM and a TGI (M14 melanoma) greater than 100 µM. It also gave a TGI (MALME-3M melanoma) of 0.07 µM, a TGI (MCF7 breast) of 0.071 µM and a TGI (NCI-H226 lung) greater than 59.9 µM. For the same molecule, the TGI (NCI-H23 lung) was greater than 100 µM, the TGI (RPMI-8226 leukemia) was 0.137 µM and the TGI (RXF 393 renal) was 0.0635 µM. For the same molecule, the TGI (SF-268 CNS) was greater than 32.6 µM, the TGI (SF-295 CNS) was 0.0585 µM and the TGI (SF-539 CNS) was 0.0443 µM. It also gave a TGI (SK-MEL-5 melanoma) of 1.04 µM, a TGI (SK-OV-3 ovarian) of 2.47 µM and a TGI (SN12C renal) greater than 77.4 µM. For the same molecule, the TGI (SR leukemia) was 0.0503 µM, the TGI (SW-620 colon) was greater than 100 µM and the TGI (TK-10 renal) was greater than 100 µM. The TGI (U251 CNS) was greater than 100 µM, the TGI (UACC-257 melanoma) was greater than 100 µM and the TGI (UACC-62 melanoma) was greater than 52.1 µM. The TGI (UO-31 renal) was greater than 100 µM.

`CN(C)c1ccc(/C=c2/c3ccccc3n3c2cc(C24CC5CC(CC(C5)C2)C4)[n+]3C)cc1` showed a TGI (786-0 renal) of 0.658 µM, a TGI (A498 renal) of 1.08 µM and a TGI (A549 NSCLC) of 1.09 µM. The TGI (ACHN renal) was 1.23 µM, the TGI (CAKI-1 renal) was 1.04 µM and the TGI (CCRF-CEM leukemia) was greater than 100 µM. The TGI (COLO 205 colon) was 0.32 µM, the TGI (DU-145 prostate) was 1.84 µM and the TGI (EKVX NSCLC) was 1.58 µM. It also gave a TGI (HL-60(TB) leukemia) of 0.666 µM, a TGI (KM12 colon) of 0.405 µM and a TGI (MDA-MB-435) of 0.694 µM. The TGI (MOLT-4 leukemia) was greater than 100 µM, the TGI (NCI-H226 lung) was 1.49 µM and the TGI (OVCAR-3 ovarian) was 1.6 µM. The TGI (OVCAR-4 ovarian) was 0.731 µM, the TGI (OVCAR-5 ovarian) was 1.61 µM and the TGI (RPMI-8226 leukemia) was greater than 100 µM. It also gave a TGI (SK-MEL-28 melanoma) of 2.16 µM, a TGI (SK-OV-3 ovarian) of 1.48 µM and a TGI (SN12C renal) of 1.12 µM. It also gave a TGI (SNB-19 CNS) of 1.36 µM, a TGI (SW-620 colon) of 1.44 µM and a TGI (TK-10 renal) of 1.65 µM.

In the case of `CC/C=C/C(=O)CC(O)(C(F)(F)F)C(F)(F)F`, the TGI (786-0 renal) was greater than 100 µM, the TGI (A498 renal) was 89.4 µM and the TGI (A549 NSCLC) was greater than 100 µM. It also gave a TGI (ACHN renal) greater than 100 µM, a TGI (CCRF-CEM leukemia) greater than 100 µM and a TGI (COLO 205 colon) greater than 100 µM. For the same molecule, the TGI (DU-145 prostate) was greater than 100 µM, the TGI (EKVX NSCLC) was greater than 100 µM and the TGI (HCC-2998 colon) was greater than 100 µM. For the same molecule, the TGI (HCT-116 colon) was greater than 100 µM, the TGI (HCT-15 colon) was greater than 100 µM and the TGI (HL-60(TB) leukemia) was greater than 100 µM. It also gave a TGI (HOP-62 NSCLC) greater than 100 µM, a TGI (HOP-92 NSCLC) of 86.3 µM and a TGI (HS 578T breast) greater than 100 µM. It also gave a TGI (HT29 colon) greater than 100 µM, a TGI (IGROV1 ovarian) greater than 100 µM and a TGI (KM12 colon) greater than 100 µM. The TGI (LOX IMVI melanoma) was greater than 100 µM, the TGI (M14 melanoma) was greater than 100 µM and the TGI (MALME-3M melanoma) was greater than 100 µM. The TGI (MCF7 breast) was greater than 100 µM, the TGI (MDA-MB-231 breast) was greater than 100 µM and the TGI (MDA-MB-435) was greater than 100 µM. The TGI (MOLT-4 leukemia) was greater than 100 µM, the TGI (NCI-H226 lung) was greater than 100 µM and the TGI (NCI-H23 lung) was greater than 100 µM. For the same molecule, the TGI (NCI-H460 lung) was greater than 100 µM, the TGI (NCI/ADR-RES ovarian) was greater than 100 µM and the TGI (OVCAR-4 ovarian) was greater than 100 µM. For the same molecule, the TGI (OVCAR-5 ovarian) was greater than 100 µM, the TGI (OVCAR-8 ovarian) was greater than 100 µM and the TGI (RPMI-8226 leukemia) was greater than 100 µM. For the same molecule, the TGI (RXF 393 renal) was greater than 100 µM, the TGI (SF-268 CNS) was greater than 100 µM and the TGI (SF-295 CNS) was greater than 100 µM. For the same molecule, the TGI (SF-539 CNS) was greater than 100 µM, the TGI (SK-MEL-28 melanoma) was greater than 100 µM and the TGI (SK-MEL-5 melanoma) was greater than 100 µM. The TGI (SK-OV-3 ovarian) was greater than 100 µM, the TGI (SN12C renal) was greater than 100 µM and the TGI (SNB-19 CNS) was greater than 100 µM. The TGI (SNB-75 CNS) was greater than 100 µM, the TGI (SR leukemia) was greater than 100 µM and the TGI (SW-620 colon) was greater than 100 µM. The TGI (T-47D breast) was greater than 100 µM, the TGI (TK-10 renal) was greater than 100 µM and the TGI (U251 CNS) was greater than 100 µM. It also gave a TGI (UACC-257 melanoma) greater than 100 µM, a TGI (UACC-62 melanoma) greater than 100 µM and a TGI (UO-31 renal) greater than 100 µM.

Molecule `O=C(C[n+]1ccccc1)N=N/C(C(=O)Nc1c(Cl)c(O)c2ccccc2c1O)=C1/C(=O)Oc2cc(O)ccc2C1=O` has a TGI (786-0 renal) greater than 100 µM, a TGI (A498 renal) of 57.5 µM and a TGI (A549 NSCLC) of 11 µM. For the same molecule, the TGI (ACHN renal) was 19.2 µM, the TGI (BT-549 breast) was 18.3 µM and the TGI (CAKI-1 renal) was 18.1 µM. It also gave a TGI (CCRF-CEM leukemia) greater than 100 µM, a TGI (COLO 205 colon) of 10.4 µM and a TGI (DU-145 prostate) of 12.4 µM. For the same molecule, the TGI (EKVX NSCLC) was 29.3 µM, the TGI (HCC-2998 colon) was 12.8 µM and the TGI (HCT-116 colon) was 12.1 µM. It also gave a TGI (HCT-15 colon) of 7.09 µM, a TGI (HL-60(TB) leukemia) greater than 100 µM and a TGI (HOP-62 NSCLC) of 22.4 µM. For the same molecule, the TGI (HOP-92 NSCLC) was 48.8 µM, the TGI (HT29 colon) was 15.3 µM and the TGI (IGROV1 ovarian) was 14.7 µM. The TGI (K-562 leukemia) was greater than 100 µM, the TGI (KM12 colon) was greater than 100 µM and the TGI (LOX IMVI melanoma) was greater than 100 µM. The TGI (M14 melanoma) was 14.7 µM, the TGI (MCF7 breast) was 15.5 µM and the TGI (MDA-MB-231 breast) was 61.4 µM. The TGI (MOLT-4 leukemia) was greater than 100 µM, the TGI (NCI-H226 lung) was 25.8 µM and the TGI (NCI-H23 lung) was 17.3 µM. It also gave a TGI (NCI-H460 lung) of 8.36 µM, a TGI (NCI-H522 lung) of 7.3 µM and a TGI (NCI/ADR-RES ovarian) of 85.1 µM. For the same molecule, the TGI (OVCAR-3 ovarian) was 13.2 µM, the TGI (OVCAR-4 ovarian) was 8.84 µM and the TGI (OVCAR-5 ovarian) was 25.5 µM. The TGI (OVCAR-8 ovarian) was 35.3 µM, the TGI (PC-3 prostate) was 33 µM and the TGI (RPMI-8226 leukemia) was 54.6 µM. For the same molecule, the TGI (RXF 393 renal) was 21.7 µM, the TGI (SF-268 CNS) was greater than 100 µM and the TGI (SF-295 CNS) was 11.8 µM. For the same molecule, the TGI (SF-539 CNS) was 16 µM, the TGI (SK-MEL-2 melanoma) was 8.1 µM and the TGI (SK-MEL-5 melanoma) was 2.26 µM. For the same molecule, the TGI (SK-OV-3 ovarian) was 27.9 µM, the TGI (SN12C renal) was 15.1 µM and the TGI (SNB-75 CNS) was 39.4 µM. The TGI (SR leukemia) was 53.6 µM, the TGI (SW-620 colon) was 20.6 µM and the TGI (T-47D breast) was 32.1 µM. For the same molecule, the TGI (TK-10 renal) was greater than 100 µM, the TGI (U251 CNS) was 45.9 µM and the TGI (UACC-257 melanoma) was 12.1 µM. For the same molecule, the TGI (UACC-62 melanoma) was 4.14 µM and the TGI (UO-31 renal) was 26.3 µM.

Work on `COc1ccc(-c2ccc(-c3ccc(C(=N)N)s3)s2)cc1Cl` yielded a GI50 (A498 renal) of 1.29 µM, a TGI (A498 renal) of 2.6 µM and a GI50 (CCRF-CEM leukemia) of 1.81 µM. For the same molecule, the TGI (CCRF-CEM leukemia) was 4.72 µM, the GI50 (SF-295 CNS) was 1.8 µM and the TGI (SF-295 CNS) was 3.3 µM. For the same molecule, the GI50 (SK-MEL-5 melanoma) was 1.88 µM, the TGI (SK-MEL-5 melanoma) was 3.52 µM and the GI50 (SR leukemia) was 0.299 µM. It also gave a TGI (SR leukemia) of 1.34 µM.

Reference: PubChem BioAssay (NCI)
